Test results published in patent US20210330611A1, “THERAPY FOR NEUROLOGICAL DISEASES/DISORDERS” (priority 2020, published 2021).
Where a name gives a salt, the structure may show the parent alone. Read-outs that look alike come from different tables or passages of the source. Where a SMILES comes first, the peptide text is derived from it.

What was measured:
[1] = system: fibrin- and LPS-induced microglia activation; assay: cells; format: cell-based, rat
[2] = system: fibrin-induced microglia activation; assay: Image-based assay of fibrin-induced microglia activation (HTS and dose response); format: cell-based, rat; conditions: primary microglia HTS, fibrin stimulation; for inhibition at 10 µM: Rattus norvegicus, Microglia, read-out: Fibrin % inhibition
primary rat microglia [3] = assay: Cell toxicity (dead cells, size <150 μm2) in coated fibrin (cFib) assay; conditions: primary microglia HTS;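 further: share of dead cells sized under 150 µm2 at 10 µM in fibrin-stimulated microglia HTS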
[4] = system: LPS-induced microglia activation; assay: Image-based assay of LPS-induced microglia activation (HTS and dose response); format: cell-based, rat; conditions: for inhibition at 10 µM: Rattus norvegicus, Microglia, read-out: LPS % inhibition
primary rat microglia [5] = system: primary rat microglia
[6] = classification by fibrin and LPS inhibition, HTS at 10 μM
[7] = fibrin assay, dead cells (size <150 μm2), compounds at 10 μM
[8] = primary microglia HTS, LPS stimulation, compounds at 10 μM
[9] = classification by fibrin and LPS inhibition in HTS
[10] = cell size >800 μm2 as marker of activation
[11] = fibrin stimulation, cell size <150 μm2 as marker of toxicity
[12] = 48 h, primary microglia HTS, LPS stimulation, cell size >800 μm2 as marker of activation
[13] = quadrant by fibrin and LPS inhibition, HTS at 10 μM
[14] = fibrin assay, dead cells (size <150 μm2)

| Structure (SMILES) | Quadrant (FIG. 5b) [1, 6] | inhibition at 10 µM ([2]; compounds at 10 μM) [%] | Fibrin % cell toxicity (primary rat microglia [3]; [7]) [%] | inhibition at 10 µM [4, 8] [%] | LPS % cell toxicity (primary rat microglia [5]; rat) [%] | Quadrant (FIG. 5b) [1, 9] | inhibition at 10 µM [2, 10] [%] | Fibrin % cell toxicity (primary rat microglia [3]; [11]) [%] | inhibition at 10 µM ([4]; 48 h) [%] | further results |
| --- | --- | --- | --- | --- | --- | --- | --- | --- | --- | --- |
| CCCCCCCCCCCCCCCCCCCCCCO [Docosanol] | Q4 | -10 | 0 | -2 | 0 |  |  |  |  |  |
| CC(=O)Oc1c(C)cccc1C(=O)O [Cresopyrine, Cresopirine] | Q4 |  | 1 |  |  |  |  |  |  | Fibrin % inhibition ([2]; compounds at 10 μM): 13%; LPS % inhibition [4, 8]: 15%; LPS % cell toxicity (primary rat microglia [5]): 1% |
| CCC1(CC)C(=O)C=CNC1=O [Pyrithyldione] |  |  |  |  | 0 | Q4 | -24 | 1 | 9 |  |
| COCCCOc1ccnc(C[S+]([O-])c2nc3ccccc3[nH]2)c1C (stereo not drawn) [Rabeprazole] |  |  |  |  | 0 | Q4 | -46 | 0 | 3 |  |
| C=CCc1ccc(O)c(OC)c1 [Eugenol] | Q4 | 37 | 0 | 20 | 0 |  |  |  |  |  |
| CC(C(=O)O)c1ccc2c(c1)Cc1cccnc1O2 (stereo not drawn) [Pranoprofen] |  |  |  |  | 0 | Q4 | -14 | 1 |  | inhibition at 10 µM [4, 12]: 8% |
| COC(=O)[C@H](Cc1ccccc1)NC(=O)[C@@H](N)CC(=O)O [Aspartame] (H-Asp-Phe-OMe) |  | -15 |  | 7 | 0 |  |  |  |  | Quadrant (FIG. 5b) [1, 13]: Q4; Fibrin % cell toxicity (primary rat microglia [3]; [14]): 1% |
| C[C@H](CCC(=O)[O-])[C@H]1CC[C@H]2[C@@H]3C(=O)C[C@@H]4CC(=O)CC[C@]4(C)[C@H]3CC(=O)[C@]12C.[Na+] |  |  |  |  |  | Q4 |  | 1 |  | Fibrin % inhibition [2, 10]: 21%; LPS % inhibition [4]: 28%; LPS % cell toxicity (primary rat microglia [5]): 1% |
| O=C(CNC(=O)c1ccc(Cl)cc1)NO [Benurestat] |  |  |  |  |  |  |  |  |  | Quadrant (FIG. 5b) [1, 13]: Q4; Fibrin % inhibition ([2]; compounds at 10 μM): 6%; Fibrin % cell toxicity (primary rat microglia [3]; [14]): 1%; LPS % inhibition [4, 8]: 22%; LPS % cell toxicity (primary rat microglia [5]): 1% |
| CCOC(=O)[C@H](CCc1ccccc1)N[C@@H](C)C(=O)N1Cc2ccccc2C[C@H]1C(=O)O [Quinapril] |  |  |  |  | 0 | Q4 | -24 | 1 | 13 |  |
| c1ccc(CN(CC2=NCCN2)c2ccccc2)cc1 [Antazoline] |  | -2 |  | 17 | 1 |  |  |  |  | Quadrant (FIG. 5b) [1, 13]: Q4; Fibrin % cell toxicity (primary rat microglia [3]; [14]): 1% |
| NC(=O)C1(N2CCCCC2)CCN(CCCC(=O)c2ccc(F)cc2)CC1 [Pipamperone] |  |  |  |  | 0 | Q4 | -4 | 1 |  | inhibition at 10 µM [4, 12]: 8% |
| CC(C)c1ccc2oc3nc(N)c(C(=O)O)cc3c(=O)c2c1 [Amlexanox] |  | -17 |  | -4 | 0 |  |  |  |  | Quadrant (FIG. 5b) [1, 13]: Q4; Fibrin % cell toxicity (primary rat microglia [3]; [14]): 0% |
| CCN(CC)CCOC(=O)C(c1ccccc1)C1CCCCC1 (stereo not drawn) [Drofenine Hydrochloride] | Q4 | -44 | 1 | 9 | 0 |  |  |  |  |  |
| CN1C[C@H](C(=O)N[C@]2(C)O[C@@]3(O)[C@@H]4CCCN4C(=O)[C@H](Cc4ccccc4)N3C2=O)C=C2c3cccc4[nH]cc(c34)C[C@H]21 [Ergotamine] | Q4 |  | 1 |  | 0 |  |  |  |  | Fibrin % inhibition ([2]; compounds at 10 μM, 10 µM): 6%; LPS % inhibition ([4]; primary microglia HTS, LPS stimulation, compounds at 10 μM, 10 µM): −4% |
| CCC(=O)OCC(=O)[C@@]1(OC(=O)CC)[C@@H](C)C[C@H]2[C@@H]3CCC4=CC(=O)C=C[C@]4(C)[C@@]3(Cl)[C@@H](O)C[C@@]21C [Beclomethasone Dipropionate] |  | 7 |  | 28 | 1 |  |  |  |  | Quadrant (FIG. 5b) [1, 13]: Q4; Fibrin % cell toxicity (primary rat microglia [3]; [14]): 1% |
| CNC(=O)Oc1ccccc1OC(C)C [Propoxur] |  |  |  |  | 0 | Q4 | -51 | 1 |  | inhibition at 10 µM [4, 12]: 8% |
| CC1=C(C)C(=O)C(C(CCCCCC(=O)O)c2ccccc2)=C(C)C1=O (stereo not drawn) [Seratrodast] |  |  |  |  | 0 | Q4 | 20 | 1 | 14 |  |

| Structure (SMILES) | Quadrant (FIG. 5b) [1, 6] | inhibition at 10 µM ([2]; compounds at 10 μM) [%] | Fibrin % cell toxicity (primary rat microglia [3]; [7]) [%] | inhibition at 10 µM [4, 8] [%] | LPS % cell toxicity (primary rat microglia [5]; rat) [%] | Quadrant (FIG. 5b) [1, 9] | inhibition at 10 µM [2, 10] [%] | Fibrin % cell toxicity (primary rat microglia [3]; [11]) [%] | inhibition at 10 µM ([4]; 48 h) [%] | further results |
| --- | --- | --- | --- | --- | --- | --- | --- | --- | --- | --- |
| CC(=O)OC/C=C(C)/C=C/C=C(C)/C=C/C1=C(C)CCCC1(C)C [Retinyl Acetate] |  |  |  |  | 0 | Q4 | 3 | 1 | 15 |  |
| NC(=O)c1cnccn1 [Pyrazinamide] |  |  |  |  | 0 | Q4 | -20 | 0 | 13 |  |
| CCOc1ccc(NC(C)=O)cc1 [Phenacetin] |  |  |  |  | 0 | Q4 | -5 | 1 | 16 |  |
| CC(CN(C)C)CN1c2ccccc2Sc2ccccc21 (stereo not drawn) [Alimemazine] |  | 32 |  | 39 | 0 |  |  |  |  | Quadrant (FIG. 5b) [1, 13]: Q4; Fibrin % cell toxicity (primary rat microglia [3]; [14]): 1% |
| CCOP(=S)(OCC)Oc1cc(C)nc(C(C)C)n1 [Diazinon, Dimpylate] | Q4 |  | 1 |  |  |  |  |  |  | Fibrin % inhibition ([2]; compounds at 10 μM): −7%; LPS % inhibition [4, 8]: −8%; LPS % cell toxicity (primary rat microglia [5]): 0% |
| Cc1nc2ccccn2c(=O)c1CCN1CCC(C(=O)c2ccc(F)cc2)CC1 [Pirenperone] |  |  |  |  | 0 | Q4 | 2 | 1 | 20 |  |
| CN1CCC[C@@H]1Cc1c[nH]c2ccc(CCS(=O)(=O)c3ccccc3)cc12 [Eletriptan Hydrobromide] | Q4 | -14 | 1 | 12 | 0 |  |  |  |  |  |
| CCCCCCCCCCCCCCOS(=O)(=O)[O-].[Na+] [Sodium Tetradecyl Sulfate] |  |  |  |  | 0 | Q4 | -5 | 1 | 13 |  |
| CN(C(=O)C(Cl)Cl)c1ccc(OC(=O)c2ccco2)cc1 [Diloxanide Furoate] | Q4 | -3 | 1 | 17 | 0 |  |  |  |  |  |
| CCCCCCOc1ccccc1C(N)=O [Exalamide] | Q4 | -15 | 1 | 18 | 0 |  |  |  |  |  |
| O=S(=O)([O-])CCSSCCS(=O)(=O)[O-].[Na+].[Na+] [Dimesna] | Q4 |  | 1 |  |  |  |  |  |  | Fibrin % inhibition ([2]; compounds at 10 μM): −19%; LPS % inhibition [4, 8]: 13%; LPS % cell toxicity (primary rat microglia [5]): 0% |
| O=C(O)CSCC(=O)NC1CCSC1=O (stereo not drawn) [Erdosteine] | Q4 | 2 | 1 | 13 | 0 |  |  |  |  |  |
| CC(C)(Sc1cc(C(C)(C)C)c(O)c(C(C)(C)C)c1)Sc1cc(C(C)(C)C)c(O)c(C(C)(C)C)c1 [Probucol] |  |  |  |  | 0 | Q4 | 12 | 0 | -1 |  |
| CC(=O)[C@H]1CC[C@H]2[C@@H]3CC[C@@H]4C[C@H](O)CC[C@]4(C)[C@H]3CC[C@]12C [Eltanolone] | Q4 | -6 | 1 | 4 | 0 |  |  |  |  |  |
| CCOc1ccc2nc(S(N)(=O)=O)sc2c1 [Ethoxzolamide] | Q4 | 29 | 1 | 16 | 1 |  |  |  |  |  |
| NCc1cccnc1 [Picolamine] |  |  |  |  | 0 | Q4 | -1 | 1 | 4 |  |
| CC(=O)[C@H]1CC[C@H]2[C@@H]3C=CC4=CC(=O)CC[C@@]4(C)[C@@H]3CC[C@]12C [Dydrogesterone] | Q4 | -11 | 0 | 4 | 0 |  |  |  |  |  |
| COC(=O)N[C@H](C(=O)N[C@@H](Cc1ccccc1)[C@@H](O)CN(Cc1ccc(-c2ccccn2)cc1)NC(=O)[C@@H](NC(=O)OC)C(C)(C)C)C(C)(C)C [Atazanavir] |  | -17 |  | 13 | 1 |  |  |  |  | Quadrant (FIG. 5b) [1, 13]: Q4; Fibrin % cell toxicity (primary rat microglia [3]; [14]): 0% |
